One test addresses JAK1 (Homo sapiens (Human), UniProt P23458). Nature of the test: Jak biochemical HTRF assay, JAK1. On the technique in general: TR-FRET usually uses a lanthanide donor and a delayed reading to cut background.
In another test the target is JAK2 (Homo sapiens (Human), UniProt O60674). Briefly: Jak biochemical HTRF assay, JAK2.
Where [1] appears, read: JAK1 IC50 (nM), recombinant GST-tagged catalytic domain, [ATP] 31.8 μM.
Setting [2] is: JAK2 IC50 (nM), recombinant GST-tagged catalytic domain, [ATP] […].
Setting [3] is: read-out: JAK1 IC50, recombinant GST-tagged catalytic domain, [ATP] 31.8 μM.
Where [4] appears, read: read-out: JAK2 IC50, recombinant GST-tagged catalytic domain, [ATP] […].

Where two headings read alike, the source gives them in different places.

Data on 22 compounds can be found in US9493441B2, “Acyclic cyanoethylpyrazoles as janus kinase inhibitors” (Merck Sharp & Dohme Corp., priority 2011, dated 2016).

Chain of JAK1 (P23458 875-1153): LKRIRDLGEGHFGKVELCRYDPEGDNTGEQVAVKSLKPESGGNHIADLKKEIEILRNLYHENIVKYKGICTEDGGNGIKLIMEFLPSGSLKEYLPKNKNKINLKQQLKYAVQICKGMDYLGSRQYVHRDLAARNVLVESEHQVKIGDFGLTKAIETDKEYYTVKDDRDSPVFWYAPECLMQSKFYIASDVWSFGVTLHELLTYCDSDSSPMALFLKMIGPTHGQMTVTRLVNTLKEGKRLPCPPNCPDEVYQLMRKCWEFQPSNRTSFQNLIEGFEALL
Chain of JAK2 (O60674 849-1124): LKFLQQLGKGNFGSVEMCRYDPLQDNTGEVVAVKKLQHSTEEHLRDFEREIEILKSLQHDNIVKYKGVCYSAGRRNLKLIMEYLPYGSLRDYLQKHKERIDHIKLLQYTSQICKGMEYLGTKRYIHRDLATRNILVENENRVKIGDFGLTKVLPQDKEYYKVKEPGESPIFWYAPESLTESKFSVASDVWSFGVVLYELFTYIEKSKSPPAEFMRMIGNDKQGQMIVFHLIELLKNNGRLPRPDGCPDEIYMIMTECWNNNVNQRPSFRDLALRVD

With `CC(C)(C)OC(=O)N1CCC(F)(C(CC#N)n2cc(C(N)=O)c(Nc3ccccc3)n2)CC1` (centres unmarked) [Example 3-2, tert-butyl 4-{1-[4-carbamoyl-3-(phenylamino)-1H-pyrazol-1-yl]-2-cyanoethyl}-4-fluoropiperidine-1-carboxylate], the IC50 (as a rule, the concentration needed to halve the response being measured) at JAK1 (setting [1]) came out at 99 nM; on JAK2 (setting [2]) it was 1500 nM.
In the same order, the values of `CS(=O)(=O)CCOC(=O)N1CCC(C(CC#N)n2cc(C(N)=O)c(Nc3ccc(F)cc3)n2)CC1` (centres unmarked) [Example 11-3, 2-(methylsulfonyl)ethyl 4-(1-{4-carbamoyl-3-[(4-fluorophenyl)amino]-1H-pyrazol-1-yl}-2-cyanoethyl)piperidine-1-carboxylate] are 122 nM and 1500 nM.
The corresponding values for `N#CCC(C1CC1)n1cc(C(N)=O)c(Nc2ccc(S(=O)(=O)C(F)(F)F)cc2)n1` (centres unmarked) [Example 4-28, 1-(2-cyano-1-cyclopropylethyl)-3-({4-[(trifluoromethyl)sulfonyl]phenyl}amino)-1H-pyrazole-4-carboxamide] are 11 nM and 75 nM.
Regarding `N#CC[C@@H](C1CC1)n1cc(C(N)=O)c(Nc2ccnc(F)c2)n1` (single isomer, unassigned) [Example 17-5, 1-[(1R or 1S)-2-cyano-1-cyclopropylethyl]-3-[(2-fluoropyridin-4-yl)amino]-1H-pyrazole-4-carboxamide], the figures for the IC50 on JAK1 (setting [1]) and at JAK2 (setting [2]) were 16 nM and 190 nM, respectively.
Take `N#CCC(n1cc(C(N)=O)c(Nc2ccccc2)n1)C(F)(F)F` (centres unmarked) [Example 2, 1-(3-Cyano-1,1,1-trifluoropropan-2-yl)-3-(phenylamino)-1H-pyrazole-4-carboxamide]: the IC50 on JAK1 (setting [1]) stood at 124 nM; on JAK2 (setting [2]) it was 339 nM.
With `COCCOC(=O)N1CCC([C@H](CC#N)n2cc(C(N)=O)c(Nc3ccc(F)cc3)n2)CC1` [Example 12-1, 2-Methoxyethyl 4-[(1S)-1-{4-carbamoyl-3-[(4-fluorophenyl)amino]-1H-pyrazol-1-yl}-2-cyanoethyl]piperidine-1-carboxylate], the IC50 turned out to be 181 nM on JAK1 (setting [1]) and 1500 nM on JAK2 (setting [2]).
For `CC(C)(C)CC(CC#N)n1cc(C(N)=O)c(Nc2ccccc2)n1` (centres unmarked) [Example 1-13], the figures for the half-maximal inhibitory concentration (IC50) on JAK1 (setting [1]) and on JAK2 (setting [2]) were 598 nM and 1480 nM, respectively.
For `N#CCC(C1CC1)n1cc(C(N)=O)c(Nc2ccc(S(=O)(=O)C(F)F)cc2)n1` (centres unmarked) [Example 4-29, 1-(2-cyano-1-cyclopropylethyl)-3-({4-[(difluoromethyl)sulfonyl]phenyl}amino)-1H-pyrazole-4-carboxamide], the results for the IC50 on JAK1 (setting [1]) and on JAK2 (setting [2]) were 2 nM and 13 nM, respectively.
Consider `C[C@@H](CC#N)n1cc(C(N)=O)c(Nc2ccccc2)n1` (single isomer, unassigned) [Example 17-1, 1-[(2S or 2R)-1-cyanopropan-2-yl]-3-(phenylamino)-1H-pyrazole-4-carboxamide], for which the IC50 on JAK1 (setting [3]) is 224 nM; on JAK2 (setting [4]), 1130 nM.
With `N#CC[C@@H](C1CCN(C(=O)OC2CCOCC2)CC1)n1cc(C(N)=O)c(Nc2ccc(F)cc2)n1` [Example 11-8, tetrahydro-2H-pyran-4-yl 4-[(1S)-1-{4-carbamoyl-3-[(4-fluorophenyl)amino]-1H-pyrazol-1-yl}-2-cyanoethyl]piperidine-1-carboxylate], the IC50 was 220 nM on JAK1 (setting [1]) and 1500 nM at JAK2 (setting [2]).
In the case of `N#CCC(C1CC1)n1cc(C(N)=O)c(Nc2ccnc(F)c2)n1` (centres unmarked) [Example 4-37, 1-(2-cyano-1-cyclopropylethyl)-3-[(2-fluoropyridin-4-yl)amino]-1H-pyrazole-4-carboxamide], the half-inhibitory concentration (IC50) is 5 nM at JAK1 (setting [1]) and 44 nM on JAK2 (setting [2]).
The corresponding values for `N#CCC(C1CC1)n1cc(C(N)=O)c(Nc2ccc3c(c2)CCS3(=O)=O)n1` (centres unmarked) [Example 5, 1-(2-Cyano-1-cyclopropylethyl)-3-[(1,1-dioxido-2,3-dihydro-1-benzothiophen-5-yl)amino]-1H-pyrazole-4-carboxamide] are 1 nM and 15 nM.
In the same order, the values of `N#CCC(C1CC1)n1cc(C(N)=O)c(Nc2ccccc2)n1` (single isomer, unassigned) [Example 17-3, 1-[(1S or 1R)-2-cyano-1-cyclopropylethyl]-3-(phenylamino)-1H-pyrazole-4-carboxamide] are 10 nM and 79 nM.
For `CC(C)(O)c1cn(Cc2cccc(Nc3nn(C(CC#N)C4CCCC4)cc3C(N)=O)c2)nn1` (centres unmarked) [Example 1-8, 1-(2-cyano-1-cyclopentylethyl)-3-[(3-{[4-(1-hydroxy-1-methylethyl)-1H-1,2,3-triazol-1-yl]methyl}phenyl)amino]-1H-pyrazole-4-carboxamide], the IC50 at JAK1 (setting [1]) was 194 nM; at JAK2 (setting [2]) it was 999 nM.
Regarding `N#CCC(C1CC1)n1cc(C(N)=O)c(Nc2cccc(C(F)(F)F)c2)n1` (centres unmarked) [Example 4-4, 1-(2-cyano-1-cyclopropylethyl)-3-{[3-(trifluoromethyl)phenyl]amino}-1H-pyrazole-4-carboxamide], the IC50 at JAK1 (setting [1]) came out at 82 nM; at JAK2 (setting [2]) it was 394 nM.
In the same order, the values of `CC(C)C(CC#N)n1cc(C(N)=O)c(Nc2ccccc2)n1` (centres unmarked) [Example 1-11, 1-[1-(cyanomethyl)-2-methylpropyl]-3-(phenylamino)-1H-pyrazole-4-carboxamide] are 64 nM and 641 nM.
In the same order, the values of `Cc1nc(-c2ccc(Nc3nn(C(CC#N)C4CC4)cc3C(N)=O)cc2)no1` (centres unmarked) [Example 4-26, 1-(2-cyano-1-cyclopropylethyl)-3-{[4-(5-methyl-1,2,4-oxadiazol-3-yl)phenyl]amino}-1H-pyrazole-4-carboxamide] are 65 nM and 277 nM.
Consider `CC(C)(C)OC(=O)N1CCC(C(CC#N)n2cc(C(N)=O)c(Nc3ccccc3)n2)CC1` (single isomer, unassigned) [Example 15-1, tert-Butyl 4-{(1S or 1R)-1-[4-carbamoyl-3-(phenylamino)-1H-pyrazol-1-yl]-2-cyanoethyl}piperidine-1-carboxylate], for which the IC50 on JAK1 (setting [3]) stood at 13 nM; at JAK2 (setting [4]), 601 nM.
For the compound `N#CC[C@@H](C1CCN(C(=O)OCCN2CCOCC2)CC1)n1cc(C(N)=O)c(Nc2ccc(F)cc2)n1` [Example 11-13, 2-morpholin-4-ylethyl 4-[(1S)-1-{4-carbamoyl-3-[(4-fluorophenyl)amino]-1H-pyrazol-1-yl}-2-cyanoethyl]piperidine-1-carboxylate], the IC50 was found to be 753 nM on JAK1 (setting [1]) and 1500 nM on JAK2 (setting [2]).
As for “1-[(1R or 1S)-2-cyano-1-cyclopropylethyl]-3-{[4-(methylsulfonyl)phenyl]amino}-1H-pyrazole-4-carboxamide [Example 14-2]”, the IC50 on JAK1 (setting [3]) came to 5 nM; at JAK2 (setting [4]) it was 55 nM.
With `N#CCC(C1CC1)n1cc(C(N)=O)c(Nc2ccnc(Cl)c2)n1` (centres unmarked) [Example 4-27, 3-[(2-chloropyridin-4-yl)amino]-1-(2-cyano-1-cyclopropylethyl)-1H-pyrazole-4-carboxamide], the IC50 on JAK1 (setting [1]) is 166 nM; at JAK2 (setting [2]), 290 nM.
With `Cc1noc(-c2ccc(Nc3nn(C(CC#N)C4CC4)cc3C(N)=O)cc2)n1` (centres unmarked) [Example 4-36, 1-(2-cyano-1-cyclopropylethyl)-3-{[4-(3-methyl-1,2,4-oxadiazol-5-yl)phenyl]amino}-1H-pyrazole-4-carboxamide], the IC50 at JAK1 (setting [1]) stood at 5 nM; on JAK2 (setting [2]), 39 nM.
